Data on twelve compounds can be found in patent publication US7919623B2, “Naphthyridine derivatives having inhibitory activity against HIV integrase” (Shionogi & Co., Ltd., priority 2004, dated 2011).

Where a name gives a salt, the structure may show the parent alone.

Tested on in the first data set: not given
Experiment: not given
As usually defined, the melting point is the temperature, or range, at which the solid turns liquid. Compound `COCC=Cc1nc(C(=O)NCCN(C)C)c(O)c2ncc(Cc3ccc(F)cc3)cc12.Cl.O` (hydrate or solvate) [Example B-20, 3-(4-fluorobenzyl)-8-hydroxy-5-(3-methoxypropenyl)[1,6]naphthyridine-7-carboxylic acid (2-dimethylaminoethyl)amide hydrochloride monohydrate] gave a melting point of 156 to 158 °C.

The next data set addresses HIV integrase (Human immunodeficiency virus type 1 group M subtype B, UniProt P04585). Put plainly: biochemical.
Method: The inhibitory activities against integrase were determined by the assay described below. • (1) Preparation of DNA Solutions
Before using the DNA solutions, complementary chains were annealed by slowly cooling after boiling.
Streptavidin, obtained from Vector Laboratories, was dissolved in 0.1 M carbonate buffer (composition: 90 mM Na2CO3, 10 mM NaHCO3) at concentration of 40 μg/ml. After coating each well of immunoplates (obtained from NUNC) with 50 μl of the above solution at 4° C. over night, each well was washed twice with PBS (composition: 13.7 mM NaCl, 0.27 mM KCl, 0.43 mM Na2HPO4, 0.14 mM KH2PO4) and blocked with 300 μl of 1% skim milk in PBS for 30 min. Additionally, each well was washed twice with PBS and added 50 μl of substrate DNA solution (2 pmol/μl). The immunoplates were kept at room temperature for 30 min while shaking. Then, each well was washed twice with PBS and once with the distilled water.
Subsequently, in the each well prepared above were added 51 μl of the reaction solution prepared from 12 μl of the buffer (composition: 150 mM MOPS (pH7.2), 75 mM MnCl2, 50 mM 2-mercaptoethanol, 25% glycerol, 500 μg/ml bovine serum albumin-fraction V), and 39 μl of the distilled water. Then 9 μl of an integrase solution (30 pmol) was added and mixed well. In the well of negative control (NC) was added 9 μl of the integrase dilution buffer (composition: 20 mM MOPS (pH7.2), 400 mM potassium glutamate, 1 mM EDTA, 0.1% NP-40, 20% glycerol, 1 mM DTT, 4M urea), and mixed well using a plate mixer.
The plates were incubated at 30° C. for 60 minutes. The reaction solution was removed and washed three times with 250 μl of washing buffer (composition: 150 mM MOPS (pH7.2), 50 mM 2-mercaptoethanol, 25% glycerol, 500 μg/ml bovine serum albumin-fraction V).
Then each well was added with 53 μl of reaction solution prepared from 12 μl of buffer (composition: 150 mM MOPS (pH7.2), 75 mM MgCl2, 50 mM 2-mercaptoethanol, 25% glycerol, 500 μg/ml bovine serum albumin-fraction V) and 41 μl of distilled water. Further, each well was added with 6 μl of DMSO solution of a compound to be tested, and the well of positive control (PC) was added with 6 μl of DMSO, and mixed well by a plate mixer. After incubating the plate for 30 minutes at 30° C., was added 1 μl of target DNA (5 pmol/μl), and mixed well by a plate mixer.
After incubation for 10 minutes at 30° C., each plate was washed twice with PBS after removal of the reaction solution. Then, 100 μl of ×2000 diluted solution of anti-digoxigenin antibody labeled with alkaline phosphatase (sheep Fab fragment: Boehringer) was added allowed to bind for 1 hour at 30° C., and washed twice with PBS containing 0.05% Tween20 and once with PBS in this sequence. Next, 150 μl of the Alkaline phosphatase coloring buffer (composition: 10 mM p-Nitrophenylphosphate (obtained from Vector Laboratories), 5 mM MgCl2, 100 mM NaCl, 100 mM Tris-HCl (pH 9.5)) was added and allowed to react for 2 hours at 30° C. Then the reaction was terminated by the addition of 50 μl of 1N NaOH solution. The optical density at 405 nm (OD405nm) of each well was measured and the inhibition rate (IC50) was determined by the following expression. The inhibition rate(%)=100[1−{(C abs.−NC abs.)/(PC abs.−NC abs.)}]
C abs.; the OD of the well of the compound
NC abs.: the OD of the negative control (NC)
PC abs.: the OD of the positive control (PC)
As usually defined, the IC50 is the point on the concentration scale where inhibition reaches its midpoint. The low end stands for greater potency, the high end for weaker potency. Compound `CCC(O)CNC(=O)c1nc(C(=O)NCCCN2CCCC2=O)c2cc(Cc3ccc(F)cc3)cnc2c1O` (stereo not drawn) [Example B-23, 3-(4-fluorobenzyl)-8-hydroxy[1,6]naphthyridine-5,7-dicarboxylic acid 7-[(2-hydroxybutyl)amide]5-{[3-(2-oxopyrrolidine-1-yl)propyl]amide}] showed an IC50 of 35.3 nM. Still for that read-out and setting: the value for `CCN(CC)CCCNC(=O)c1nc(NC(=O)COC)c2cc(Cc3ccc(F)cc3)cnc2c1O` [Example B-12, 3-(4-fluorobenzyl)-8-hydroxy-5-(2-methoxyacetylamino)[1,6]naphthyridine-7-carboxylic acid (3-diethylaminopropyl)amide] was 159 nM; that for `CCC(O)CNC(=O)c1nc(NC(=O)COC)c2cc(Cc3ccc(F)cc3)cnc2c1O` (stereo not drawn) [Example B-1, 3-(4-fluorobenzyl)-8-hydroxy-5-(2-methoxyacetylamino)-[1,6]naphthyridine-7-carboxylic acid (2-hydroxybutyl)amide] was 24.1 nM; that for `CCC(O)CNC(=O)c1nc(C(=O)NCCOC)c2cc(Cc3ccc(F)cc3)cnc2c1O` (stereo not drawn) [Example B-22, 3-(4-fluorobenzyl)-8-hydroxy[1,6]naphthyridine-5,7-dicarboxylic acid 7-[(2-hydroxybutyl)amide] 5-[(2-methoxyethyl)amide]] was 36.1 nM. `COCC=Cc1nc(C(=O)NCCN(C)C)c(O)c2ncc(Cc3ccc(F)cc3)cc12` [Example B-20, 3-(4-fluorobenzyl)-8-hydroxy-5-(3-methoxypropenyl)[1,6]naphthyridine-7-carboxylic acid (2-dimethylaminoethyl)amide hydrochloride monohydrate]: the IC50 is 34.5 nM.

On to `COCC(=O)Nc1nc(C(=O)NC(C)CO)c(O)c2ncc(Cc3ccc(F)cc3)cc12` (stereo not drawn) [Example B-10, 3-(4-fluorobenzyl)-8-hydroxy-5-(2-methoxyacetylamino)[1,6]naphthyridine-7-carboxylic acid (2-hydroxy-1-methylethyl)amide], for which the IC50 was 49.7 nM.

Compound `CCC(O)CNC(=O)c1nc(C(=O)NCC2CCCO2)c2cc(Cc3ccc(F)cc3)cnc2c1O` (stereo not drawn) [Example B-24, 3-(4-fluorobenzyl)-8-hydroxy[1,6]naphthyridine-5,7-dicarboxylic acid 7-[(2-hydroxybutyl)amide] 5-[(tetrahydrofuran-2-ylmethyl)amide]] showed a 50% inhibitory concentration (IC50) of 30.2 nM. In turn, `CNC(=O)C(=O)Nc1nc(C(=O)NCCOC)c(O)c2ncc(Cc3ccc(F)cc3)cc12` [Example A-3, N-[3-(4-fluorobenzyl)-8-hydroxy-7-(2-methoxyethylcarbamoyl)[1,6]naphthyridine-5-yl]-N′-methyloxal amide] had an IC50 of 41.7 nM. With `CCC(O)CNC(=O)c1nc(C(=O)NC(C)(C)C)c2cc(Cc3ccc(F)cc3)cnc2c1O` (stereo not drawn) [Example B-21, 3-(4-fluorobenzyl)-8-hydroxy[1,6]naphthyridine-5,7-dicarboxylic acid 5-tert-butylamide 7-[(2-hydroxybutyl)amide]], it took 17.9 nM to reach half-maximal inhibition (IC50). As for `COCC(=O)Nc1nc(C(=O)NCCN(C)C)c(O)c2ncc(Cc3ccc(F)cc3)cc12` [Example B-9, 3-(4-fluorobenzyl)-8-hydroxy-5-(2-methoxyacetylamino)[1,6]naphthyridine-7-carboxylic acid (2-dimethylaminoethyl)amide], the IC50 is 37.3 nM. On the same count and under the same terms, the value for `COCC(=O)Nc1nc(C(=O)NCCCN(C)C)c(O)c2ncc(Cc3ccc(F)cc3)cc12` [Example B-13, 3-(4-fluorobenzyl)-8-hydroxy-5-(2-methoxyacetylamino)[1,6]naphthyridine-7-carboxylic acid (3-dimethylaminopropyl)amide] was 70.3 nM.
